Experimental data published in ChEMBL document CHEMBL1144704, “Phloroglucinols with prooxidant activity from Garcinia subelliptica” (J Nat Prod, 2008).
Active and inactive are the calls of the source. No cut-off for these calls is given here.

Assays:
[1] = test system: Escherichia coli; experiment: Induction of Cu(2)-mediated pBR322 DNA cleavage assessed as conversion of supercoiled to relaxed open circle at 50 to 300 uM by agarose gel electrophoresis
[2] = test system: Escherichia coli; experiment: Induction of Cu(2)-mediated pBR322 DNA cleavage assessed as conversion of supercoiled to relaxed open circle at 300 uM by agarose gel electrophoresis in presence of catalase
[3] = test system: Escherichia coli; experiment: Induction of Cu(2)-mediated pBR322 DNA cleavage assessed as conversion of supercoiled to relaxed open circle at 300 uM by agarose gel electrophoresis in presence of potassium iodide
[4] = test system: Escherichia coli; experiment: Induction of Cu(2)-mediated pBR322 DNA cleavage assessed as conversion of supercoiled to relaxed open circle at 300 uM by agarose gel electrophoresis in presence of superoxide dismutase

SMILES | Activity [1] | Activity [2] | Activity [3] | Activity [4]
C=C(C)CC[C@@H](C[C@@H]1C[C@]2(CC=C(C)C)C(=O)[C@@](C(=O)c3ccc(O)c(O)c3)(C(=O)C3=C2O[C@@H](C(C)(C)O)C3)C1(C)C)C(=C)C | inactive |  |  | 
CC(C)=CC[C@]12C[C@H](O)C(C)(C)O[C@@H](C(C)(C)O)C[C@@](O)(C(=O)C(C(=O)C(C)C)=C1O)C2=O | Active | Active | Active | Active
C=C(C)CC[C@@H](C[C@H]1C[C@@]2(CC=C(C)C)C(=O)C(CC=C(C)C)=C(O)[C@@](C(=O)c3ccc(O)c(O)c3)(C2=O)C1(C)C)C(=C)C (stereo in doubt; 2) |  | Active | Active | Active
C=C(C)CC[C@@H](C[C@H]1C[C@@]2(CC=C(C)C)C(=O)C(CC=C(C)C)=C(O)[C@@](C(=O)c3ccc(O)c(O)c3)(C2=O)C1(C)C)C(=C)C (stereo in doubt; 2a) |  | Active | Active | Active
